Patent US11014911B2, “CDK2 inhibitors” (Pfizer Inc., priority 2019, dated 2021)

Assays:
[1] = target: CDK2/Cyclin E1 full length (Homo sapiens (Human), UniProt P24941); assay: CDK2/Cyclin E1 full length mobility shift assay; type: biochemical
[2] = target: GSK3β (H350L) (Homo sapiens (Human), UniProt P49841); conditions: read-out: GSK3β Ki
Sequence of GSK3β (H350L) (P49841 whole entry, stated change not applied): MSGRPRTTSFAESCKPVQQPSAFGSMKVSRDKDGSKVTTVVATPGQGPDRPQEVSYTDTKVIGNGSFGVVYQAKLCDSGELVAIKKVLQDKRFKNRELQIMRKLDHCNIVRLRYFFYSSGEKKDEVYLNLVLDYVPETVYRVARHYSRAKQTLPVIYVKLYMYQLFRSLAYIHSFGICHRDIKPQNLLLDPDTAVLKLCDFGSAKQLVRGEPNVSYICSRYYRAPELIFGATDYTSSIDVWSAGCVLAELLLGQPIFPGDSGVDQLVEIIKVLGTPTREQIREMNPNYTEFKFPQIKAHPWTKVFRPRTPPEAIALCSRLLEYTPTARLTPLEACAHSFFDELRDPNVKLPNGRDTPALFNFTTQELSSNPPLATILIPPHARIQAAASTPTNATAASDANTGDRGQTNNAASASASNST
Experimental: The assay was initiated with the addition of ATP, following 15 minutes pre-incubation of enzyme and inhibitor at room temperature in the reaction mixture. The reaction was stopped after 30 minutes at room temperature by the addition of 50 μL of 80 mM EDTA.

Ki [1] | Ki [2] | SMILES
0.13 nM | 8.86 nM | Cc1ncc(CC(=O)Nc2cc([C@H]3CC[C@@H](OC(=O)NC4(C)CCCC4)C3)[nH]n2)s1 [Example 116]
0.17 nM | 21.3 nM | CC[C@H](C)NC(=O)O[C@@H]1CC[C@H](c2cc(NC(=O)Cc3cncs3)n[nH]2)C1 [Example 36]
0.82 nM | 58.4 nM | CC[C@H](C)NC(=O)O[C@@H]1CC[C@H](c2cc(NC(=O)Cc3sc(C)nc3C)n[nH]2)C1 [Example 352, (1R,3S)-3-(3-{[(2,4-dimethyl-1,3-thiazol-5-yl)acetyl]amino}-1H-pyrazol-5-yl)cyclopentyl (2S)-butan-2-ylcarbamate]
0.37 nM | 10.1 nM | COc1ccc(CC(=O)Nc2cc([C@@H]3CC[C@H](OC(=O)N[C@H]4CC[C@@](C)(O)CC4)C3)[nH]n2)cc1 [Example 564, (1S,3R)-3-(3-{[(4-methoxyphenyl)acetyl]amino}-1H-pyrazol-5-yl)cyclopentyl (cis-4-hydroxy-4-methylcyclohexyl)carbamate]
0.38 nM | 56.1 nM | Cc1cc(CC(=O)Nc2cc([C@H]3CC[C@@H](OC(=O)NC(C)(C)C)C3)[nH]n2)no1 [Example 295, (1R,3S)-3-(3-{[(5-methyl-1,2-oxazol-3-yl)acetyl]amino}-1H-pyrazol-5-yl)cyclopentyl tert-butylcarbamate]
0.55 nM | 28.3 nM | Cc1ncc(CC(=O)Nc2cc([C@H]3CC[C@@H](OC(=O)N[C@@H]4CCC[C@@H]4C)C3)[nH]n2)s1 [Example 463, (1R,3S)-3-(3-{[(2-methyl-1,3-thiazol-5-yl)acetyl]amino}-1H-pyrazol-5-yl)cyclopentyl [(1R,2S)-2-methylcyclopentyl]carbamate]
1.15 nM | 9.44 nM | CCN(C)C(=O)O[C@@H]1CC[C@H](c2cc(NC(=O)Cc3cnc(C)s3)n[nH]2)C1 [Example 239, (1R,3S)-3-(3-{[(2-methyl-1,3-thiazol-5-yl)acetyl]amino}-1H-pyrazol-5-yl)cyclopentyl ethyl(methyl)carbamate]
0.25 nM | 4.2 nM | CCCNC(=O)O[C@H]1CC[C@@H](c2cc(NC(=O)Cc3ccc(OC)nc3)n[nH]2)C1 [Example 21]
0.21 nM | 24 nM | CCC(C)(C)NC(=O)O[C@@H]1CC[C@H](c2cc(NC(=O)Cc3ncc(C)o3)n[nH]2)C1 [Example 62]
0.41 nM | 18.6 nM | C[C@]1(O)CC[C@@H](NC(=O)O[C@H]2CC[C@@H](c3cc(NC(=O)Cc4ccccc4)n[nH]3)C2)CC1 [Example 558, (1S,3R)-3-{3-[(phenylacetyl)amino]-1H-pyrazol-5-yl}cyclopentyl (cis-4-hydroxy-4-methylcyclohexyl)carbamate]
0.37 nM | 24.2 nM | C[C@]1(O)CC[C@@H](NC(=O)O[C@@H]2CC[C@H](c3cc(NC(=O)Cc4cc(F)cc(F)c4)n[nH]3)C2)CC1 [Example 572, (1R,3S)-3-(3-{[(3,5-difluorophenyl)acetyl]amino}-1H-pyrazol-5-yl)cyclopentyl (cis-4-hydroxy-4-methylcyclohexyl)carbamate]
0.82 nM | 39.7 nM | CCCNC(=O)O[C@H]1CC[C@@H](c2cc(NC(=O)Cc3cnc(C)o3)n[nH]2)C1 [Example 175, (1S,3R)-3-(3-{[(2-methyl-1,3-oxazol-5-yl)acetyl]amino}-1H-pyrazol-5-yl)cyclopentyl propylcarbamate]

Continued, compound first:

SMILES | Ki [1] | Ki [2]
C[C@H]1C[C@H](C)N1C(=O)O[C@@H]1CC[C@H](c2cc(NC(=O)Cc3cnn(C)c3)n[nH]2)C1 [Example 605, (1R,3S)-3-(3-{[(1-methyl-1H-pyrazol-4-yl)acetyl]amino}-1H-pyrazol-5-yl)cyclopentyl (2S,4S)-2,4-dimethylazetidine-1-carboxylate] | 0.32 nM | 9.89 nM
CCCNC(=O)O[C@@H]1CC[C@H](c2cc(NC(=O)c3ccc(OC)nc3)n[nH]2)C1 [Example 183, (1R,3S)-3-(3-{[(6-methoxypyridin-3-yl)carbonyl]amino}-1H-pyrazol-5-yl)cyclopentyl propylcarbamate] | 3.68 nM | > 95.3 nM
CC[C@H](C)NC(=O)O[C@@H]1CC[C@H](c2cc(NC(=O)Cc3cn4ccsc4n3)n[nH]2)C1 [Example 355, (1R,3S)-3-{3-[(imidazo[2,1-b][1,3]thiazol-6-ylacetyl)amino]-1H-pyrazol-5-yl}cyclopentyl (2S)-butan-2-ylcarbamate] | 1.13 nM | 18.1 nM
CCNC(=O)O[C@@H]1CC[C@H](c2cc(NC(=O)Cc3ccc(OC)cc3)n[nH]2)C1 [Example 230, (1R,3S)-3-(3-{[(4-methoxyphenyl)acetyl]amino}-1H-pyrazol-5-yl)cyclopentyl ethylcarbamate] | 1.55 nM | 48.6 nM
C[C@@H]1COCCN1C(=O)O[C@@H]1CC[C@H](c2cc(NC(=O)Cc3cc(F)cc(F)c3)n[nH]2)C1 [Example 645, (1R,3S)-3-(3-{[(3,5-difluorophenyl)acetyl]amino}-1H-pyrazol-5-yl)cyclopentyl (3R)-3-methylmorpholine-4-carboxylate] | 0.37 nM | 7.23 nM
CCCNC(=O)O[C@@H]1CC[C@H](c2cc(NC(=O)Cc3ccc(OC)nc3)n[nH]2)C1 [Example 188, (1R,3S)-3-(3-{[(6-methoxypyridin-3-yl)acetyl]amino}-1H-pyrazol-5-yl)cyclopentyl propylcarbamate] | 0.44 nM | 9.32 nM
COc1ccc(CC(=O)Nc2cc([C@H]3CC[C@@H](OC(=O)N4CCC4(C)C)C3)[nH]n2)cn1 [Example 144] | 0.1 nM | 1.26 nM
CC1(C)CCN1C(=O)O[C@H]1CC[C@@H](c2cc(NC(=O)Cc3ccccc3S(C)(=O)=O)n[nH]2)C1 [Example 143] | 0.25 nM | 15.8 nM
CC[C@H](C)NC(=O)O[C@@H]1CC[C@H](c2cc(NC(=O)Cc3ccc(OC)cc3S(C)(=O)=O)n[nH]2)C1 [Example 44] | 0.21 nM | 47.8 nM
CCCNC(=O)O[C@H]1CC[C@@H](c2cc(NC(=O)Cc3ccc(OCCN)cc3)n[nH]2)C1 [Example 198, (1S,3R)-3-[3-({[4-(2-aminoethoxy)phenyl]acetyl}amino)-1H-pyrazol-5-yl]cyclopentyl propylcarbamate] | 0.28 nM | 52.1 nM
Cc1cnc(CC(=O)Nc2cc([C@H]3CC[C@@H](OC(=O)NCCC(F)(F)F)C3)[nH]n2)o1 [Example 218, (1R,3S)-3-(3-{[(5-methyl-1,3-oxazol-2-yl)acetyl]amino}-1H-pyrazol-5-yl)cyclopentyl (3,3,3-trifluoropropyl)carbamate] | 2.09 nM | 30.6 nM
Cc1ncc(CC(=O)Nc2cc([C@@H]3CC[C@H](OC(=O)N[C@H]4CC[C@H](O)CC4)C3)[nH]n2)s1 [Example 551, (1S,3R)-3-(3-{[(2-methyl-1,3-thiazol-5-yl)acetyl]amino}-1H-pyrazol-5-yl)cyclopentyl (trans-4-hydroxycyclohexyl)carbamate] | 0.34 nM | 2.94 nM
CC[C@H](C)NC(=O)O[C@@H]1CC[C@H](c2cc(NC(=O)c3ccnn3CCN(C)C)[nH]n2)C1 [Example 356, (1R,3S)-3-{5-[({1-[2-(dimethylamino)ethyl]-1H-pyrazol-5-yl}carbonyl)amino]-1H-pyrazol-3-yl}cyclopentyl (2S)-butan-2-ylcarbamate] | 0.67 nM | 148 nM
COc1cc(CC(=O)Nc2cc([C@H]3CC[C@@H](OC(=O)N[C@@H](C)CF)C3)[nH]n2)ccn1 [Example 100] | 0.43 nM | 41.7 nM
CCN(C)C(=O)O[C@@H]1CC[C@H](c2cc(NC(=O)Cc3ccc(OC)nc3)n[nH]2)C1 [Example 244, (1R,3S)-3-(3-{[(6-methoxypyridin-3-yl)acetyl]amino}-1H-pyrazol-5-yl)cyclopentyl ethyl(methyl)carbamate] | 0.57 nM | 3.7 nM
C[C@H](CC(F)(F)F)NC(=O)O[C@@H]1CC[C@H](c2cc(NC(=O)Cc3cnn(C)c3)n[nH]2)C1 [Example 394, (1R,3S)-3-(3-{[(1-methyl-1H-pyrazol-4-yl)acetyl]amino}-1H-pyrazol-5-yl)cyclopentyl [(2R)-4,4,4-trifluorobutan-2-yl]carbamate] | 0.42 nM | 42.7 nM
C[C@@H](CC(F)(F)F)NC(=O)O[C@@H]1CC[C@H](c2cc(NC(=O)c3cnnn3C)n[nH]2)C1 [Example 91] | 0.09 nM | 28.1 nM
CC(C)NC(=O)O[C@@H]1CC[C@H](c2cc(NC(=O)c3cnnn3C)n[nH]2)C1 [Example 262, (1R,3S)-3-(3-{[(1-methyl-1H-1,2,3-triazol-5-yl)carbonyl]amino}-1H-pyrazol-5-yl)cyclopentyl propan-2-ylcarbamate] | 0.64 nM | > 47.6 nM
CC(C)NC(=O)O[C@H]1CC[C@@H](c2cc(NC(=O)Cc3ccno3)n[nH]2)C1 [Example 263, (1S,3R)-3-{3-[(1,2-oxazol-5-ylacetyl)amino]-1H-pyrazol-5-yl}cyclopentyl propan-2-ylcarbamate] | 0.52 nM | 31.9 nM
CCN(C)C(=O)O[C@@H]1CC[C@H](c2cc(NC(=O)Cc3ccc(F)cc3)n[nH]2)C1 [Example 238, (1R,3S)-3-(3-{[(4-fluorophenyl)acetyl]amino}-1H-pyrazol-5-yl)cyclopentyl ethyl(methyl)carbamate] | 1.13 nM | 14.7 nM
CC[C@H](C)NC(=O)O[C@@H]1CC[C@H](c2cc(NC(=O)Cc3ccc(C)cc3S(C)(=O)=O)n[nH]2)C1 [Example 45] | 0.11 nM | 61.4 nM
CC[C@H](C)NC(=O)O[C@@H]1CC[C@H](c2cc(NC(=O)c3ccnn3CCO)n[nH]2)C1 [Example 53] | 0.1 nM | 45.7 nM
CC[C@H](C)NC(=O)O[C@@H]1CC[C@H](c2cc(NC(=O)Cc3ccnn3C)n[nH]2)C1 [Example 326, (1R,3S)-3-(3-{[(1-methyl-1H-pyrazol-5-yl)acetyl]amino}-1H-pyrazol-5-yl)cyclopentyl (2S)-butan-2-ylcarbamate] | 1.17 nM | 72.4 nM
CCCNC(=O)O[C@H]1CC[C@@H](c2cc(NC(=O)Cc3ccccc3OCCN)n[nH]2)C1 [Example 197, (1S,3R)-3-[3-({[2-(2-aminoethoxy)phenyl]acetyl}amino)-1H-pyrazol-5-yl]cyclopentyl propylcarbamate] | 0.49 nM | > 191 nM
